# In publication PMC11079024, “Identification of a family of species-selective complex I inhibitors as potential anthelmintics” (Nature Communications, 2024):
# “And” between values parts separate entries of the source, which are not always exact repeats. Equal entries are not always repeated. Where two headings read alike, the source gives them in different places.
# Key:
# [1] = target: C. elegans (N2) complex I (NADH:ubiquinone oxidoreductase) (Caenorhabditis elegans, UniProt P24887+Q93873+Q94360); assay: biochemical; assay type: biochemical; conditions: for % Activity Complex I: 100 µM compound, relative to solvent control, mean (SEM); for Percent in vitro activity, Complex I (single replicate Rep1-Rep4) / Percent in vitro activity, Complex I (Mean): 100 μM of NPD compound, C. elegans mitochondria; for Percent in vitro activity, Complex I (single replicate Rep1-Rep4): individual biological replicates; for Percent in vitro activity, Complex I (Mean): mean of four biological replicates
# Sequence of C. elegans (N2) complex I (NADH:ubiquinone oxidoreductase) (Q94360 17-199): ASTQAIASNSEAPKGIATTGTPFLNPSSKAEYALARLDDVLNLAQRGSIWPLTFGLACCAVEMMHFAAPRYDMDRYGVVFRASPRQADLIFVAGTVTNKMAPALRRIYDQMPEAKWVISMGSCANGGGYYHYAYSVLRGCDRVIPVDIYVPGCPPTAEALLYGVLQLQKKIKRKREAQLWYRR
# Sequence of C. elegans (N2) complex I (NADH:ubiquinone oxidoreductase) (P24887 whole entry): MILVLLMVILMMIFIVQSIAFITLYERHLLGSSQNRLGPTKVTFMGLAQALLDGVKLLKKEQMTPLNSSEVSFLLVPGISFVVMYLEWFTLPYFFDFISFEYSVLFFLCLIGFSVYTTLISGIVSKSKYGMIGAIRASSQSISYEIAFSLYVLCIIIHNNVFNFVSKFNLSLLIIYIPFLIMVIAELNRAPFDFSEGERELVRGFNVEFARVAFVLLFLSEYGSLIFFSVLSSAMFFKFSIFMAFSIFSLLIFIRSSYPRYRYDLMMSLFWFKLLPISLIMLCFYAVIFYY
# Sequence of C. elegans (N2) complex I (NADH:ubiquinone oxidoreductase) (Q93873 31-482): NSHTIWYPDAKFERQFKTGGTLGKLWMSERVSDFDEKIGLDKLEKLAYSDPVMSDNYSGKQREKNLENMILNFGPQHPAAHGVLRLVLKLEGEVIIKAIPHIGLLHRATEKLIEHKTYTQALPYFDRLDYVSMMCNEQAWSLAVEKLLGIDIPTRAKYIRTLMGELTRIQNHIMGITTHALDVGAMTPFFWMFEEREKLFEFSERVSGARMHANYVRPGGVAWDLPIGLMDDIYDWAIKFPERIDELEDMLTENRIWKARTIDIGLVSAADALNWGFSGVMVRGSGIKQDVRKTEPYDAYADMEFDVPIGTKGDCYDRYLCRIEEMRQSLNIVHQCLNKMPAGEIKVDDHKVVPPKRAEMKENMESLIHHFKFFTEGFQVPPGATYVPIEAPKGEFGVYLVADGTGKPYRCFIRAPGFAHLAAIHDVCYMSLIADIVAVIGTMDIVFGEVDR
# Outline: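 Activity expressed as percent of solvent control. Complex I rate came from DCIP reduction at 600 nm (initial linear slope, 15 min) with NADH and decylubiquinone as substrates, plus antimycin A and KCN, in pH 7.5 KPi/BSA buffer. Isolated, thrice freeze-thawed mitochondria used at 0.2 mg/mL.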
# [2] = target: C. elegans complex II (succinate dehydrogenase) (Caenorhabditis elegans, UniProt O62215+P41956+Q09545); assay: In vitro complex II activity assay, C. elegans mitochondria; assay type: biochemical; conditions: for % Activity Complex II: 100 µM compound, relative to solvent control, mean (SEM); for Percent in vitro activity, Complex II (single replicate Rep1-Rep4) / Percent in vitro activity, Complex II (Mean): 100 μM of NPD compound, C. elegans mitochondria; for Percent in vitro activity, Complex II (single replicate Rep1-Rep4): individual biological replicates; for Percent in vitro activity, Complex II (Mean): mean of four biological replicates
# Sequence of C. elegans complex II (succinate dehydrogenase) (P41956 30-182): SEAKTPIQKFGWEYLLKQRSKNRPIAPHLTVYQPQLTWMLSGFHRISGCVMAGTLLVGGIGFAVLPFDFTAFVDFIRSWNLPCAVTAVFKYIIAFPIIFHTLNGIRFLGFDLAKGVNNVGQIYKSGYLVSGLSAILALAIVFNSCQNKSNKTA
# Sequence of C. elegans complex II (succinate dehydrogenase) (Q09545 22-298): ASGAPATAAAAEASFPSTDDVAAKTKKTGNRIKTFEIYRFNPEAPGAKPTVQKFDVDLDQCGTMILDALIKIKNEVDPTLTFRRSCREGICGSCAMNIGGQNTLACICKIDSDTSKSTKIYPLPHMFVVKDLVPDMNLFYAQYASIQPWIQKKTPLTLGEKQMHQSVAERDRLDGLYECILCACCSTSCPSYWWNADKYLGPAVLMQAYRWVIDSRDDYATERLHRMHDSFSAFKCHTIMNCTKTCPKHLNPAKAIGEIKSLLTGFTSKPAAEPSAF
# Sequence of C. elegans complex II (succinate dehydrogenase) (Q09508 32-646, further chain): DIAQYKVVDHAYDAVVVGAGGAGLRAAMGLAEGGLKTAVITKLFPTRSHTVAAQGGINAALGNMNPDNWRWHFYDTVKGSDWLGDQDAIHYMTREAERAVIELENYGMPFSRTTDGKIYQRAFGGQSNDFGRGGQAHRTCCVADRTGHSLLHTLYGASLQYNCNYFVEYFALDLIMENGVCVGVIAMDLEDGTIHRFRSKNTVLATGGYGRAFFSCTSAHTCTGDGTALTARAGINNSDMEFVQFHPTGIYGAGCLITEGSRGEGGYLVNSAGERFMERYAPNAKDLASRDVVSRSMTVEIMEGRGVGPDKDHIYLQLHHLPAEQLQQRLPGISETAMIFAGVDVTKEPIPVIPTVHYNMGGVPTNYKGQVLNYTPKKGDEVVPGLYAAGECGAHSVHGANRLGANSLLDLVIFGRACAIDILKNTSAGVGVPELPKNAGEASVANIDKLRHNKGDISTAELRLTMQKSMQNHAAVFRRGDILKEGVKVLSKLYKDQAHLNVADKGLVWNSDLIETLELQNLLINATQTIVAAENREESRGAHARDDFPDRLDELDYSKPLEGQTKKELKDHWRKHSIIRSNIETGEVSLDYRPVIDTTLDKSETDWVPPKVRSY
# Sequence of C. elegans complex II (succinate dehydrogenase) (O62215 31-145): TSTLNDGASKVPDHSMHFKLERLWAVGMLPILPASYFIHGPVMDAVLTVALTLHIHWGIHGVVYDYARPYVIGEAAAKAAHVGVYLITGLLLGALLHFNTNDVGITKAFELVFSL
# Protocol: (§1) Mitochondria were isolated from the following free-living nematode strains: C. elegans—N2, CB3474, ECA882, ECA917, ECA1075, ECA1080; C. briggsae—AF16; P. pacificus—PS312; and P. hermaphrodita—B178. With the exception of the P. hermaphrodita strain B178, adult worms of each strain were grown in bulk through liquid culture to obtain mitochondria in sufficient quantities. Due to poor growth in liquid media, mixed stage populations of P. hermaphrodita were washed off and collected from NGM plates seeded with OP50. The isolation of mitochondria from all free-living nematode strains followed the protocol previously outlined in Burns et al.[24]. In brief, a 1 L saturated culture of E. coli HB101 was concentrated 20-fold in 50 mL complete S-medium. ~500,000 L1 worms synchronized from an embryo preparation performed the day prior were added to the S-media/HB101 suspension and grown to adulthood over the course of 3.5 days at 20 °C with shaking at 165 rpm. Following growth, worms were collected in 10 ×15 mL conical tubes and washed 7 times in M9 buffer. Worm suspensions were then combined into a single 15 mL conical tube and diluted to a final volume of 15 mL with M9 buffer. 1 mL aliquots of worm suspension were then distributed to 15 × 1.5 mL screw-cap microcentrifuge tubes and were pelleted at 500 g for 1 min. Excess M9 was aspirated without disturbing the worm pellet. 600 μL ice-cold isolate buffer A (250 mM sucrose, 10 mM Tris (pH 7.5), 1 mM EDTA, 1 mM PMSF (freshly prepared)) and 300 μL cold glass beads were then added to each tube. Tubes were incubated on ice for 10 min, and the worms were then lysed by bead beating (6 x 30 s, with 1 min cooling intervals). Tubes containing worm lysate were centrifuged at 1,000 g for 10 min at 4 °C and the supernatant was transferred to 15 new microcentrifuge tubes on ice. The tubes were centrifuged a second time at 1,000 g for 10 min at 4 °C and the supernatant was once again transferred to 15 new microcentrifuge tubes on ice. These tubes were then centrifuged at 16,000 g for 10 min at 4 °C. The resulting mitochondrial pellet was washed twice by re-suspension in 300 μL of ice-cold isolate buffer B (250 mM sucrose, 10 mM Tris (pH 7.5), 1 mM EDTA). Following the final wash, isolation buffer was aspirated from each tube and the pellets were flash-frozen in ethanol/dry ice and stored at −80 °C until needed.
# (§2) The enzymatic activities of individual ETC complexes (I-IV) were assessed spectrophotometrically in isolated mitochondria using a Varioskan LUX Multimode plate reader (ThermoFisher Scientific). Mitochondrial pellets previously isolated were thawed on ice and resuspended in ice-cold isolation buffer (250 mM sucrose, 10 mM Tris (pH 7.5), 1 mM EDTA). The BCA assay (Walker, 1994) was used to quantify the protein concentration of mitochondria suspensions; solutions were diluted to a concentration of 0.2 mg/mL for use in all assays. For the complex I assay, mitochondria pellets were freeze-thawed on ice three times to increase enzyme accessibility. […] 20 μL mitochondria suspension was then added/mixed with a pipette to initiate the reaction. Immediately following the addition of mitochondria, absorbance was measured (complex I and II: 600 nm; complex III and IV: 550 nm) in 30 s intervals over 15 min. Enzymatic activity was determined in each reaction by plotting absorbance versus time and calculating the slope of the curve during the initial linear phase of the reaction. […] Percent activity of each complex was calculated by dividing the enzyme-specific activity of each well by the enzyme-specific activity of the corresponding solvent controls.
# Complex II (succinate dehydrogenase) activity was assessed using the DCIP-coupled method previously described in Burns et al.[24].
# For preliminary screens of hit compounds, compounds were screened at 100 μM; data are the average of at least three biological replicates. The complex I and II activity assays were used for additional dose-response experiments.
# [3] = system: C. elegans complex III (decylubiquinol-cytochrome C reductase); assay: In vitro complex III activity assay, C. elegans mitochondria; assay type: biochemical, Caenorhabditis elegans; conditions: for % Activity Complex III: 100 µM compound, relative to solvent control, mean (SEM); for Percent in vitro activity, Complex III (single replicate Rep1-Rep4) / Percent in vitro activity, Complex III (Mean): 100 μM of NPD compound, C. elegans mitochondria; for Percent in vitro activity, Complex III (single replicate Rep1-Rep4): individual biological replicates; for Percent in vitro activity, Complex III (Mean): mean of four biological replicates
# Protocol: as §1, §2
# Antimycin A-sensitive complex III (decylubiquinol-cytochrome C […]) activity was determined by measuring the reduction of cytochrome C (CytC) as optimized in Luo et al.[59]. Decylubiquinol for complex III assays was prepared fresh as described in Janssen and Boyle, 2019[60].
# [4] = system: C. elegans complex IV (cytochrome C oxidase); assay: In vitro complex IV activity assay, C. elegans mitochondria; assay type: biochemical, Caenorhabditis elegans; conditions: for % Activity Complex IV: 100 µM compound, relative to solvent control, mean (SEM); for Percent in vitro activity, Complex IV (single replicate Rep1-Rep4) / Percent in vitro activity, Complex IV (Mean): 100 μM of NPD compound, C. elegans mitochondria; for Percent in vitro activity, Complex IV (single replicate Rep1-Rep4): individual biological replicates; for Percent in vitro activity, Complex IV (Mean): mean of four biological replicates
# Protocol: as §1, §2
# Complex IV (cytochrome C oxidase) activity was determined by following the oxidation of CytC in the protocol outlined by Janssen and Boyle, 2019[60]. Reduced CytC was prepared fresh by adding 1 μL increments of 1 M dithiothreitol to a 1 mM solution of CytC and vortexing. A colour change from brown to orange/pink signals when CytC has been reduced.
# C. elegans = C. elegans chemical screens of RIKEN NPD libraries at 50 μM (hit identification in KCN survival and development/viability assays); assay type: cell-based, Caenorhabditis elegans; conditions: screened at 50 μM in triplicate, KCN = KCN survival assay, Dev. & Viability = development/viability assay
# L1 wild-type C. elegans = conditions: for LC50: caenorhabditis elegans; for C. elegans L1 relative motility, 3-hour post 200 µM KCN dilution: individual replicate (Rep)
# HEK293 cells = conditions: for CC50: read-out: HEK293 Cell Viability Assay LC50, 2 days exposure
structure (smiles),measurement,setting,value
COc1ccc(-c2cc(=Nc3ccc(C)cc3)c3ccccc3o2)cc1OC [NPD1450],% Activity Complex I,[1],84.47 (2.03) %
same,"Percent in vitro activity, Complex I (single replicate Rep1-Rep4)",[1],79.543% and 95.426% and 77.236% and 85.664%
same,"Percent in vitro activity, Complex I (Mean)",[1],84.467%
same,% Activity Complex II,[2],103.01 (4.34) %
same,"Percent in vitro activity, Complex II (single replicate Rep1-Rep4)",[2],124.470% and 101.843% and 81.995% and 103.742%
same,"Percent in vitro activity, Complex II (Mean)",[2],103.012%
same,% Activity Complex III,[3],111.72 (0.94) %
same,"Percent in vitro activity, Complex III (single replicate Rep1-Rep4)",[3],113.847% and 114.804% and 111.813% and 106.416%
same,"Percent in vitro activity, Complex III (Mean)",[3],111.720%
same,% Activity Complex IV,[4],117.12 (3.30) %
same,"Percent in vitro activity, Complex IV (single replicate Rep1-Rep4)",[4],109.749% and 111.295% and 110.581% and 136.859%
same,"Percent in vitro activity, Complex IV (Mean)",[4],117.121%
same,Hit Type,C. elegans; hit = modified z-score < −3,KCN
same,LC50,L1 wild-type C. elegans,35.3 µM
same,HEK293 viability,HEK293 cells,0.921
same,CC50,HEK293 cells,> 50 µM
COc1ccccc1/C=C/C(=O)c1cc(C)ccc1O [NPD8582],Hit Type,C. elegans; hit = modified z-score < −3,KCN
same,LC50,L1 wild-type C. elegans,14.7 µM
O=C(CCCN1C(=O)c2cccc3cccc(c23)C1=O)N1CCN(Cc2ccc3c(c2)OCO3)CC1 [HTD0465],Hit Type,C. elegans; hit = modified z-score < −3,Dev. & Viability
same,CC50,HEK293 cells,20.5 µM
"CC[C@@]1(O)C(=O)OCc2c1cc1n(c2=O)Cc2cc3ccccc3nc2-1 [Camptothecin, reference compound]",Hit Type,C. elegans; […],Dev. & Viability
COc1ccc(-c2cc(=Nc3ccccc3N)c3ccccc3o2)cc1 [NPD6380],% Activity Complex I,[1],86.43 (2.27) %
same,"Percent in vitro activity, Complex I (single replicate Rep1-Rep4)",[1],77.779% and 82.402% and 98.876% and 86.642%
same,"Percent in vitro activity, Complex I (Mean)",[1],86.425%
same,% Activity Complex II,[2],102.27 (2.46) %
same,"Percent in vitro activity, Complex II (single replicate Rep1-Rep4)",[2],113.834% and 92.410% and 96.068% and 106.772%
same,"Percent in vitro activity, Complex II (Mean)",[2],102.271%
same,% Activity Complex III,[3],107.06 (1.36) %
same,"Percent in vitro activity, Complex III (single replicate Rep1-Rep4)",[3],109.305% and 109.700% and 110.292% and 98.948%
same,"Percent in vitro activity, Complex III (Mean)",[3],107.062%
same,% Activity Complex IV,[4],115.38 (4.42) %
same,"Percent in vitro activity, Complex IV (single replicate Rep1-Rep4)",[4],108.559% and 111.425% and 100.551% and 140.996%
same,"Percent in vitro activity, Complex IV (Mean)",[4],115.383%
same,Hit Type,C. elegans; hit = modified z-score < −3,KCN
same,LC50,L1 wild-type C. elegans,14.3 µM
same,"C. elegans L1 relative motility, 3-hour post 200 µM KCN dilution",L1 wild-type C. elegans; dose 0.4 µM,1.243 and 1.189
same,"C. elegans L1 relative motility, 3-hour post 200 µM KCN dilution",L1 wild-type C. elegans; dose 0.8 µM,1.074 and 1.086
same,"C. elegans L1 relative motility, 3-hour post 200 µM KCN dilution",L1 wild-type C. elegans; dose 3.1 µM,1.020 and 1.053
same,"C. elegans L1 relative motility, 3-hour post 200 µM KCN dilution",L1 wild-type C. elegans; dose 6.3 µM,1.040 and 1.101
same,"C. elegans L1 relative motility, 3-hour post 200 µM KCN dilution",L1 wild-type C. elegans; dose 12.5 µM,0.696 and 0.688
same,"C. elegans L1 relative motility, 3-hour post 200 µM KCN dilution",L1 wild-type C. elegans; dose 25 µM,0.136 and 0.141
same,"C. elegans L1 relative motility, 3-hour post 200 µM KCN dilution",L1 wild-type C. elegans; dose 50 µM,0.030 and 0.035
same,HEK293 viability,"HEK293 cells; dose 0.8 µM, individual replicate (Rep)",0.998
same,HEK293 viability,"HEK293 cells; dose 3.1 µM, individual replicate (Rep)",0.945 and 0.951
same,HEK293 viability,"HEK293 cells; dose 6.3 µM, individual replicate (Rep)",0.687 and 0.797
same,HEK293 viability,"HEK293 cells; dose 12.5 µM, individual replicate (Rep)",0.542 and 0.584
same,HEK293 viability,"HEK293 cells; dose 25 µM, individual replicate (Rep)",0.441 and 0.466
same,HEK293 viability,"HEK293 cells; dose 50 µM, individual replicate (Rep)",0.431 and 0.445
same,CC50,HEK293 cells,29.2 µM
CCc1ccc(-c2cc(C(=O)Nc3nccs3)c3ccccc3n2)cc1 [STK418118],Hit Type,C. elegans; hit = modified z-score < −3,Dev. & Viability
same,CC50,HEK293 cells,> 50 µM
COc1ccc(N=c2cc(-c3ccc(OC)c(OC)c3)oc3ccccc23)c(OC)c1 [NPD6383],Hit Type,C. elegans; hit = modified z-score < −3,KCN
same,LC50,L1 wild-type C. elegans,22.2 µM
